Where two headings read alike, the source gives them in different places.
How the values were obtained:
In vitro metabolism [1] = assay: In vitro metabolism
In vitro metabolism [2] = type: in vitro ADME, mouse
In vitro metabolism [3] = conditions: female human
In vitro metabolism [4] = assay: In vitro metabolism; remark: listed apart in the source
humans = conditions: ref WHO, 2010, 2012; cited from earlier work
[5] = mouse, microsomes
in vitro [6] = conditions: female, human, pH 7.4, Km
in vitro [7] = conditions: female, B6129SF1/J, mouse, pH 7.4
in vitro [8] = conditions: male, Sprague-Dawley, rat, pH 7.4
[9] = human
[10] = rat, microsomes
[11] = pregnant relative to naïve female mice

SMILES: c1ccc2c(c1)cc1ccc3cccc4c5ccccc5c2c1c34 [DBC, dibenzo[def,p]chrysene]
- Vmax (In vitro metabolism [1]; male rat liver microsomes, Michaelis-Menten regression of substrate depletion): 0.167 ± 0.064 nmol/min/mg MSP
- Tissue level CLINT, MM (In vitro metabolism [1]; male rat, Michaelis-Menten method (Vmax/Km scaled)): 0.69 ± 0.73 ml/min/g tissue
- Organism level CLINT, MM (In vitro metabolism [1]; male rat, Michaelis-Menten method, liver weight 36.6 g per kg body weight): 25.14 ± 26.85 ml/min/kg body weight
- Tissue level CLINT, t 1/2 (In vitro metabolism [1]; male rat, in vitro half-life method): 1.01 ± 0.30 ml/min/g tissue
- Organism level CLINT, t 1/2 (In vitro metabolism [1]; male rat, in vitro half-life method, liver weight 36.6 g per kg body weight): 37.05 ± 10.96 ml/min/kg body weight
- Km (In vitro metabolism [1]; male, Sprague-Dawley, rat, pH 7.4): 7.28 ± 4.99 µM
- Km (In vitro metabolism [2]; female, B6129SF1/J, mouse, liver microsomes of pregnant (GD17) mice, pH 7.4): 3.28 ± 1.38 µM
- Tissue level CLINT, MM (In vitro metabolism [2]; pregnant mouse, Michaelis-Menten method (Vmax/Km scaled)): 3.81 ± 2.28 ml/min/g tissue
- Organism level CLINT, MM (In vitro metabolism [2]; pregnant mouse, Michaelis-Menten method, liver weight 41.8 g per kg body weight): 159.43 ± 95.51 ml/min/kg body weight
- Tissue level CLINT, t 1/2 (In vitro metabolism [2]; pregnant mouse, in vitro half-life method): 3.31 ± 1.75 ml/min/g tissue
- KM reduced in the pregnant animal (In vitro metabolism [2]; [11]): 51%
- VMAX reduced in the pregnant animal (In vitro metabolism [2]; [11]): 35%
- higher tissue level CLINT in the pregnant animal (Michaelis-Menten regression method) (In vitro metabolism [2]; [11]): 30%
- tissue level CLINT lower in the pregnant animal (in vitro half-life method) (In vitro metabolism [2]; [11]): 28%
- Tissue level CLINT, MM (In vitro metabolism [3]; Michaelis-Menten method (Vmax/Km scaled)): 0.32 ± 0.46 ml/min/g tissue
- Organism level CLINT, MM (In vitro metabolism [3]; Michaelis-Menten method, liver weight 25.7 g per kg body weight): 8.19 ± 11.73 ml/min/kg body weight
- Tissue level CLINT, t 1/2 (In vitro metabolism [3]; in vitro half-life method): 0.16 ml/min/g tissue
- Organism level CLINT, t 1/2 (In vitro metabolism [3]; in vitro half-life method, liver weight 25.7 g per kg body weight): 4.23 ml/min/kg body weight
- Km (In vitro metabolism [4]; female, B6129SF1/J, mouse, pH 7.4): 6.63 ± 1.01 µM
- Vmax (In vitro metabolism [4]; naïve mouse liver microsomes, Michaelis-Menten regression of substrate depletion): 0.646 ± 0.055 nmol/min/mg MSP
- Tissue level CLINT, MM (In vitro metabolism [4]; naïve mouse, Michaelis-Menten method (Vmax/Km scaled)): 2.92 ± 0.71 ml/min/g tissue
- Organism level CLINT, MM (In vitro metabolism [4]; naïve mouse, Michaelis-Menten method, liver weight 55 g per kg body weight): 160.71 ± 38.94 ml/min/kg body weight
- Tissue level CLINT, t 1/2 (In vitro metabolism [4]; naïve mouse, in vitro half-life method): 4.59 ± 0.53 ml/min/g tissue
- Organism level CLINT, t 1/2 (In vitro metabolism [4]; naïve mouse, in vitro half-life method, liver weight 55 g per kg body weight): 252.18 ± 29.26 ml/min/kg body weight
- IARC classification (humans): Group 2A

SMILES: c1ccc2c(c1)cc1ccc3cccc4ccc2c1c34 [B[a]P, benzo[a]pyrene]
- KM in male rats exceeded that in female mice (In vitro metabolism [1]; male rat relative to female mouse): 3.6 fold
- B[a]P CLINT exceeded DBC CLINT, margin (in vitro half-life method) ([5]; female, B6129SF1/J, pH 7.4): 10.6 fold
- CLINT for B[a]P exceeded that of DBC, margin (Michaelis-Menten regressions) ([5]; female, B6129SF1/J, pH 7.4): 9.0 fold
- Organism level CLINT, MM [5]: 1445.2 ± 778.0 ml/min/kg body weight
- Organism level CLINT, t 1/2 [5]: 2699.0 ± 1803.4 ml/min/kg body weight
- Tissue level CLINT, t 1/2 [5]: 48.53 ± 32.79 ml/min/g tissue
- Km (in vitro [6]): 0.73 µM
- Km (in vitro [7]): 4.97 ± 1.96 µM
- Km (in vitro [8]): 18 ± 12.9 µM
- B[a]P CLINT exceeded DBC CLINT, margin (in vitro half-life method) ([9]; female, microsomes, pH 7.4): 13.3 fold
- CLINT for B[a]P exceeded that of DBC, margin (Michaelis-Menten regressions) ([9]; female, microsomes, pH 7.4): 3.3 fold
- Km ([9]; female, pH 7.4): 0.725 ± 0.581 µM
- Organism level CLINT, MM ([9]; microsomes): 27.16 ± 29.98 ml/min/kg body weight
- Organism level CLINT, t 1/2 ([9]; microsomes): 54.69 ml/min/kg body weight
- Tissue level CLINT, t 1/2 ([9]; microsomes): 2.13 ml/min/g tissue
- B[a]P CLINT exceeded DBC CLINT, margin (in vitro half-life method) ([10]; male, Sprague-Dawley, pH 7.4): 1.4 fold
- CLINT for B[a]P exceeded that of DBC, margin (Michaelis-Menten regressions) ([10]; male, Sprague-Dawley, pH 7.4): 2.6 fold
- Organism level CLINT, MM [10]: 65.90 ± 71.68 ml/min/kg body weight
- Organism level CLINT, t 1/2 [10]: 51.34 ± 22.19 ml/min/kg body weight
- Tissue level CLINT, t 1/2 [10]: 1.40 ± 0.61 ml/min/g tissue
